Read-outs that look alike come from different tables or passages of the source.
Assays:
[1] = tested on: D9-HASM cells; test: [Ca2+]i stimulation screening assay (Fluo-4) in D9-HASM cells; assay type: cell-based, human; conditions: for EC50: Fluo-4, mean±SE from 4-8 experiments, read-out: EC50 ([Ca^2+]i stimulation); for Emax / Rmax (% ionomycin): maximal [Ca2+]i response normalized to ionomycin 2.0 μM; for Emax: read-out: Rmax (% ionomycin)
Protocol: Cultured D9 telomerase reverse transcriptase immortalized HASM (D9-HASM) cells were utilized for the [Ca^2+]i screening assays. Cells were seeded onto 96 well plates and loaded with Fluo-4 direct. The [Ca^2+]i responses to multiple concentrations of potential agonists were determined as a measure of receptor activation. Control cells were exposed to the non-specific ionophore ionomycin at 2.0 μM (a maximal effective concentration, FIG. 4). Results from TAS2R agonist studies were normalized to the ionomycin response in order to compare the maximal responses (Rmax) between agonists. The concentration-response data were fit to a four component logistic regression model (sigmoid curve) using iterative non-linear regression methods to determine the EC50 and Rmax. The structures of the previously identified agonist termed T5-1, and 18 derivatives (denoted as T5-2 through T5-19) are shown in FIG. 2. Representative [Ca^2+]i responses to these compounds are shown in FIG. 4, and mean results from multiple concentration-response experiments are shown in FIG. 3. Table 1 summarizes the results in terms of potency (EC50) and efficacy (Rmax), with statistical comparisons to T5-1.

[2] = tested on: primary HASM cells; test: HASM cell relaxation by magnetic twisting cytometry (MTC); assay type: cell-based, human; conditions: for Relaxation (% basal): primary HASM cells passages 5-7, non-asthmatic donor, MTC, single concentration 500 μM; for rank of HASM cell relaxation response (FIG. 7): 500 μM, added at 60 seconds, 200-400 cells per compound
Protocol: FIG. 7 depicts HASM cell relaxation responses to selected compounds. Compounds were studied at a concentration of 500 μM and were added to the culture media at the 60 second time point (arrow). Results are from measurements of 200-400 cells per compound. *, P<0.01 vs the T5-1 reference response.
To correlate the [Ca^2+]i responses of the compounds to relevant physiologic function, we turned to measurements of single-cell mechanics in HASM cells using magnetic twisting cytometry (MTC) as previously described. Here, cultured primary HASM cells at passages 5-7 derived from a non-asthmatic donor lung were utilized. […] Positive controls (FIG. 6) included the β-agonists albuterol (partial agonist), formoterol (full agonist) and forskolin, which increases cAMP by direct activation of adenylyl cyclase.

Row | Compound | EC50 ([1]; Homo sapiens) [µM] | Emax ([1]; Homo sapiens) [%] | Relaxation (% basal) [2] [% basal] | rank of HASM cell relaxation response (FIG. 7) [2] | EC50 [1] [µM] | Rmax (% ionomycin) [1] [% ionomycin]
1 | c1cnc2c(c1)ccc1cccnc12 [T5-1, 1,10-Phenanthroline, reference compound] | 29.7 ± 5.57 | 149 ± 10.2 | 10.8 ± 2.17 | – | – | –
2 | c1ccc(-c2ccccn2)nc1 [T5-2, 2,2′-Bipyridine] | – | 16.4 ± 4.48 | −3.2 ± 1.67 | – | – | –
3 | c1cnc2c(c1)ccc1ncccc12 [T5-3, 1,7-Phenanthroline] | 24.9 ± 4.58 | 121 ± 16.7 | 34.8 ± 1.36 | – | – | –
4 | c1cnc2ccc3ncccc3c2c1 [T5-4, 4,7-Phenanthroline] | – | 15.4 ± 3.37 | 15.3 ± 1.48 | – | – | –
5 | Cc1ccc2ccc3ccc(C)nc3c2n1 [T5-5, 2,9-Dimethyl-1,10-phenanthroline] | 33.3 ± 6.4 | 143 ± 13.1 | 12.0 ± 1.47 | – | – | –
6 | Clc1cc2cccnc2c2ncccc12 [T5-11, 5-Chrolo-1,10-phenanthroline] | – | – | 18.0 ± 2.13 | then 18 and 11 | 11.1 ± 2 | 183 ± 7.3
7 | c1cnc2c(c1)c1nccnc1c1cccnc12 [T5-14, Pyrazino[2,3-f][1,10]phenanthroline] | 147 ± 2.26 | 34.5 ± 15.1 | 6.1 ± 1.67 | – | – | –
8 | O=C1C(=O)c2ccccc2-c2ccccc21 [T5-18, 9,10-Phenanthrenequinone] | 5.08 ± 1.37 | 153 ± 5.2 | 20.0 ± 2.00 | then 18 and 11 | – | –
9 | Cc1ccnc(-c2cc(C)ccn2)c1 [T5-19, 4,4′-Dimethyl-2,2′-dipyridyl] | – | – | – | – | 60.6 ± 9.13 | 58.9 ± 2.95

Further lines, with some results ahead:

Row | EC50 ([1]; Homo sapiens) [µM] | Compound | Emax ([1]; Homo sapiens) [%] | Relaxation (% basal) [2] [% basal] | rank of HASM cell relaxation response (FIG. 7) [2] | EC50 [1] [µM] | Rmax (% ionomycin) [1] [% ionomycin]
10 | 1.39 ± 0.19 | Cc1ccnc2c1ccc1c(C)ccnc12 [T5-6, 4,7-Dimethyl-1,10-phenanthroline] | 147 ± 16.7 | 5.3 ± 1.95 | – | – | –
11 | 2.05 ± 0.2 | Cc1c(C)c2cccnc2c2ncccc12 [T5-7, 5,6-Dimethyl-1,10-phenanthroline] | 163 ± 36.4 | 9.0 ± 2.19 | – | – | –
12 | 0.12 ± 0.05 | O=C1C(=O)c2cccnc2-c2ncccc21 [T5-8, 1,10-Phenanthroline-5,6-dione] | 199 ± 20.2 | 50.2 ± 2.79 | greatest degree of relaxation | – | –
13 | 4.6 ± 0.42 | Nc1cc2cccnc2c2ncccc12 [T5-9, 1,10-Phenanthrolin-5-amine] | 176 ± 14.2 | 7.2 ± 1.95 | – | – | –
14 | 4.35 ± 0.71 | Brc1cc2cccnc2c2ncccc12 [T5-10, 5-Bromo-1,10-phenanthroline] | 182 ± 25.7 | 14.4 ± 1.93 | – | – | –
15 | 12.1 ± 1.99 | Cc1cc2cccnc2c2ncccc12 [T5-12, 5-Methyl-1,10-phenanthroline] | 181 ± 24.6 | – | – | – | –
16 | 36 ± 3.85 | O=[N+]([O-])c1cc2cccnc2c2ncccc12 [T5-13, 5-Nitro-1,10-phenanthroline] | 134 ± 11.9 | 12.8 ± 2.00 | – | – | –
17 | 7.48 ± 0.78 | COc1c(OC)c2cccnc2c2ncccc12 [T5-15, 5,6-Dimethoxy-1,10-phenanthroline] | 127 ± 16.1 | 26.7 ± 1.65 | then 15 | – | –
18 | 4.05 ± 0.8 | CCc1c(CC)c2cccnc2c2ncccc12 [T5-16, 5,6-Diethyl-1,10-phenanthroline] | 183 ± 14.7 | – | – | – | –
19 | 25.5 ± 7.06 | C=C(C)c1c(C(=C)C)c2cccnc2c2ncccc12 [T5-17, 5,6-di(prop-1-en-2yl)-1,10-phenanthroline] | 113 ± 19 | 13.5 ± 2.59 | – | – | –
